From US11534475B2, “Carbohydrate-based peritoneal dialysis fluid comprising glutamine residue” (ZYTOPROTEC GmbH, priority 2007, dated 2022)
Where a SMILES comes first, the peptide text is derived from it.

Columns and labels:
[1] = test system: mesothelial cells; experiment: Longterm (24 hours) exposure model, PDF diluted 1:1 with medium: viability by LDH release; type: cell-based; conditions: PDF diluted 1:1 with M199, L-alanyl-L-glutamine 0.5 and 10.0 g/L, compared to standard PDF
Source text: (§1) The acute recovery experimental setting as described for glutamine as a proof of principle for the cytoprotective PDF, is best representative for the early toxic effects of PDF, mainly due to low pH and lactate as major culprits. Alternate models such as a longterm exposure model to unused PDF diluted 1:1 with normal culture medium are better accepted tools to assess effects of cellular processes that occur in the peritoneum upon more extended exposure to PDF, as occurs in clinical PD. […] Additional control cultures are kept in pure regular culture media at 37° C. for the same time. At the end of the study, cell viability and protein expression are assessed in parallel cultures to identify the cytoprotective PDF.

[2] = test system: HSP-72; experiment: Longterm (24 hours) exposure model, PDF diluted 1:1 with medium: HSP-72 expression; type: cell-based; conditions: PDF diluted 1:1 with M199, L-alanyl-L-glutamine 0.5 and 10.0 g/L, compared to standard PDF
Source text: as §1

[3] = test system: HSP-72; experiment: In-vivo acute rat model of PD: HSP-72 expression in harvested mesothelial cells; design: species or system Sprague Dawley rats; conditions: 4 hr dwell, L-glutamine supplemented PDF vs standard PDF
Method: After introduction of anaesthesia (ketamine 100 mg/kg and 5 mg/kg xylazine, intramusculary) the animals were placed on a heated small animal operating table. A sterile catheter was inserted into the peritoneal cavity through a small abdominal midline incision and 35 ml of test fluid (PDF with or without addition of L-glutamine at 4-10 mM) were slowly infused in 45-60 secs. The animal was gently moved, a small volume of peritoneal fluid aspirated, the catheter withdrawn and the abdomen sutured. Animals awoke within 20 minutes after the procedure and had free access to food and tap water. At 4 hours after the intraperitoneal injection animals were again anaesthetized, another small volume of peritoneal fluid was aspirated and animals were sacrificed by cardial puncture and exsanguinations. Thereafter, the abdomen was opened by a midline incision and the complete intraperitoneal fluid gently collected. The volumes of the collected fluids were recorded, and total cell count and differential counts at the two time pints (0 and 4 hours) were assessed by hand count after giemsa staining and by machine count by a coulter counter. […]
Western blotting: Protein content of mesothelial cell harvests was determined by Bradford assay (BioRad) and equal amounts of protein samples (5 μg/lane) were separated by standard SDS-PAGE using a Pharmacia Multiphore II unit. […]

[4] = test system: Immortalized human mesothelial cells (Met5A, ATCC CRL-9444); experiment: In-vitro model of PD: viability by LDH release; type: cell-based; conditions: for LDH release: % of negative control, mean+/-S.D.
Method: Immortalized human mesothelial cells (Met5A, ATCC CRL-9444) were cultured in M199/MCDB 105 medium (1:1) supplemented with 100 units/ml penicillin, 100 µg/ml streptomycin and 10% FCS. Cultures were kept in 75 cm^2 tissue culture flasks (Falcon, Becton Dickinson, Oxnard, Calif.) at 37° C. in 5% CO2 and passaged by regular trypsinization. Medium was changed every two to three days. Confluence was reached on average after 6 to 7 days.
Confluent cultures were then exposed for 120 minutes to standard glucose-monomer and acidic lactate-based PDF (Fresenius 2, Bad Homburg, Germany), containing 1.5% anhydrous dextrose at pH 5.5, with or without addition of cytoprotective compound (glutamine at 4 to 20 mM) and allowed to recover in regular growth medium for 16 hours. Control cultures were kept in regular culture media at 37° C. and underwent “sham media changes”, i.e.: exposure to PDF was paralleled by exposure to control medium.
Viability of cells was assessed by lactate dehydrogenase (LDH) analyses. Fifty μl aliquots of supernatants were removed after the described experimental setup and kept on 4° C. until analyzed within 48 hours. Measurements were performed in duplicates with Sigma TOX-7 LDH Kit according to the manufacturer instructions. LDH efflux was calculated as percentage of LDH values measured in each negative control experiment. Induction of HSP was assessed in parallel cultures as described below.

[5] = test system: mesothelial cells; experiment: In-vivo acute rat model of PD: mesothelial cell detachment; design: species or system Sprague Dawley rats; conditions: 4 hr dwell, intraperitoneal PDF with or without L-glutamine, mean+/-S.D.
Method: (§2) The studies were carried out on adult male inbred Sprague Dawley rats (average weight 310 g).
After introduction of anaesthesia (ketamine 100 mg/kg and 5 mg/kg xylazine, intramusculary) the animals were placed on a heated small animal operating table. A sterile catheter was inserted into the peritoneal cavity through a small abdominal midline incision and 35 ml of test fluid (PDF with or without addition of L-glutamine at 4-10 mM) were slowly infused in 45-60 secs. The animal was gently moved, a small volume of peritoneal fluid aspirated, the catheter withdrawn and the abdomen sutured. Animals awoke within 20 minutes after the procedure and had free access to food and tap water. At 4 hours after the intraperitoneal injection animals were again anaesthetized, another small volume of peritoneal fluid was aspirated and animals were sacrificed by cardial puncture and exsanguinations. Thereafter, the abdomen was opened by a midline incision and the complete intraperitoneal fluid gently collected. The volumes of the collected fluids were recorded, and total cell count and differential counts at the two time pints (0 and 4 hours) were assessed by hand count after giemsa staining and by machine count by a coulter counter. Total number of detached mesothelial cells was then computed for each rat. […]

[6] = test system: peritoneal membrane; experiment: In-vivo acute rat model of PD: barrier function of the peritoneal membrane; design: species or system Sprague Dawley rats; conditions: 4 hr dwell
Method: as §2
After introduction of anaesthesia (ketamine 100 mg/kg and 5 mg/kg xylazine, intramusculary) the animals were placed on a heated small animal operating table. A sterile catheter was inserted into the peritoneal cavity through a small abdominal midline incision and 35 ml of test fluid (PDF with or without addition of L-glutamine at 4-10 mM) were slowly infused in 45-60 secs. The animal was gently moved, a small volume of peritoneal fluid aspirated, the catheter withdrawn and the abdomen sutured. Animals awoke within 20 minutes after the procedure and had free access to food and tap water. At 4 hours after the intraperitoneal injection animals were again anaesthetized, another small volume of peritoneal fluid was aspirated and animals were sacrificed by cardial puncture and exsanguinations. Thereafter, the abdomen was opened by a midline incision and the complete intraperitoneal fluid gently collected. The volumes of the collected fluids were recorded, and total cell count and differential counts at the two time pints (0 and 4 hours) were assessed by hand count after giemsa staining and by machine count by a coulter counter. Total number of detached mesothelial cells was then computed for each rat.
For testing the barrier function of the peritoneal membrane, creatinine, glucose and total protein were measured in dialysate (D) samples and creatinine in plasma (P) at the end of the protocol. D/P ratios for creatinine and D/D0 ratios for glucose were computed. Peritoneal loss of protein was calculated as final dialysate concentration×final volume.

[7] = test system: HSP-72; experiment: In-vitro model of PD: HSP-72 expression by Western blotting; type: cell-based, human
Method: Immortalized human mesothelial cells […], ATCC CRL-9444) were cultured in M199/MCDB 105 medium (1:1) supplemented with 100 units/ml penicillin, 100 µg/ml streptomycin and 10% FCS. Cultures were kept in 75 cm^2 tissue culture flasks (Falcon, Becton Dickinson, Oxnard, Calif.) at 37° C. in 5% CO2 and passaged by regular trypsinization. Medium was changed every two to three days. Confluence was reached on average after 6 to 7 days. Confluent cultures were then exposed for 120 minutes to standard glucose-monomer and acidic lactate-based PDF (Fresenius 2, Bad Homburg, Germany), containing 1.5% anhydrous dextrose at pH 5.5, with or without addition of cytoprotective compound ([…] to 20 mM) and allowed to recover in regular growth medium for 16 hours. Control cultures were kept in regular culture media at 37° C. and underwent “sham media changes”, i.e.: exposure to PDF was paralleled by exposure to control medium. Western blotting: Protein content of mesothelial cell harvests was determined by Bradford assay (BioRad) and equal amounts of protein samples (5 μg/lane) were separated by standard SDS-PAGE using a Pharmacia Multiphore II unit. Size-fractionated proteins were transferred to PVDF membranes by semi-dry transfer in a Pharmacia Multiphore II Novablot unit. Membranes were blocked in 5% dry milk in TBS-Tween (10 mM Tris, 150 mM NaCl, 0.05% Tween 20, pH 8.0). Membranes were incubated with the HSP-72 antibody (SPA 810, Stressgen, B.C., Canada). Detection was accomplished by incubation with secondary, peroxidase-coupled antibodies (Sigma, USA) and enhanced chemiluminescence (ECL) using ECL Western blotting analysis system and protocols (Renaissance, NEN-Life Science Products, Boston, Mass., USA). Densitometry was performed with image analysis software (Molecular Analyst software, BioRad, USA). Differential expression of HSP-72 was derived from the ratio of specific signals in the linear range of the protein/signal intensity relationship, normalized to an internal standard, and compared between parallel experiments.

## C[C@H](N)C(=O)N[C@@H](CCC(N)=O)C(=O)O [L-alanyl-L-glutamine] (H-Ala-Gln-OH)
[1]
  Viability assessed by LDH release: preserved viability
[2]
  HSP-72 expression: increased

## NC(=O)CC[C@H](N)C(=O)O [L-glutamine]
[3]
  HSP-72 expression in rat mesothelial cells: overexpression of HSP-72
[4]; control conditions (no PDF)
  LDH release: 91+/−7%
[4]; control conditions, L-glutamine up to 20 mM
  Viability (LDH release): unchanged viability
[4]; during exposure to PDF for 120 min, 16 hours recovery
  LDH release: 190+/−19%
[5]
  Mesothelial cell detachment: 38+/−38 cells
[6]
  D/Do glucose: 0.469+/−0.04
  D/P creatinine: 0.375+/−0.11
  Net ultrafiltration: 5.4 ± 2.7 mL
[6]; final dialysate concentration x final volume
  Protein loss into the dialysate effluate: 65 ± 4 mg
[7]; control conditions (no PDF), relative to control, mean+/-S.D.
  HSP-72 expression: 234+/−221%
[7]; control conditions, L-glutamine 8 and 10 mM
  HSP-72 expression: increased
[7]; during exposure to PDF for 120 min, relative to control, mean+/-S.D.
  HSP-72 expression: 1895+/−1928%
